Laboratory results reported in article PMC10780633, “Novel Multi-Target Agents Based on the Privileged Structure of 4-Hydroxy-2-quinolinone” (Molecules, 2023).
pIC50: −log10 of the molar value.

Assays:
[1] = Interaction with the stable free radical DPPH (reducing activity); details: for Interaction with the Free Radical DPPH (%): 100 μM; for DPPH radical scavenging activity, time not specified: reaction time not given
Description: (§1) In this work, the carboxamides 3a–3u, the quinolinone–cinnamic or benzoic acid hybrids 11a–11g and the reverse amides 16a–16c were tested for their antioxidant activity via five in vitro techniques; (i) the interaction with the stable free radical 2,2-diphenyl-1-picrylhydrazyl (DPPH); (ii) the inhibition of lipid peroxidation; (iii) the hydroxyl radical scavenging ability; (iv) the 2,2-azino-bis(3-ethylbenzothiazoline-6-sulfonic acid (ABTS) radical cation (ABTS·^+) reduction; and (v) the superoxide anion radical scavenging ability.

[2] = Inhibition of lipid peroxidation of linoleic acid induced by AAPH radical; details: 100 μM
Description: as §1
The assay for the determination of the inhibition of linoleic acid peroxidation induced by the free radical initiator […](2-amidinopropane) dihydrochloride (AAPH) was performed according to the methods of Hadjipavlou-Litina et al., which we have also used in our previous works.

[3] = Competition with DMSO for hydroxyl radicals; details: 0.1 mM
Description: as §1
The assay was performed according to the methods of Pontiki et al. Trolox was used as a reference compound [78].

[4] = ABTS radical cation decolorization assay; details: 0.1 mM
Description: as §1
The experimental technique used in this section was performed according to the methods of Pontiki et al.. The results were compared to the appropriate standard inhibitor Trolox.

[5] = Non-enzymatic superoxide anion radical scavenging assay (PMS); details: 0.1 mM
Description: as §1
The experimental technique used for this assay was performed according to our previous works. Caffeic acid was used as an appropriate standard.

[6] = target: T1, soybean lipoxygenase (Glycine max, UniProt P08170); assay: Soybean LOX inhibition in vitro (UV absorbance-based assay); format: biochemical; details: for Inhibition of Soybean Lipoxygenase % at 0.1 mM / inhibition at 100 µM: 0.1 mM
T1 construct: purchased Sigma Chemical, Co. (St. Louis, MO, USA)
T1 sequence (P08170 1-839): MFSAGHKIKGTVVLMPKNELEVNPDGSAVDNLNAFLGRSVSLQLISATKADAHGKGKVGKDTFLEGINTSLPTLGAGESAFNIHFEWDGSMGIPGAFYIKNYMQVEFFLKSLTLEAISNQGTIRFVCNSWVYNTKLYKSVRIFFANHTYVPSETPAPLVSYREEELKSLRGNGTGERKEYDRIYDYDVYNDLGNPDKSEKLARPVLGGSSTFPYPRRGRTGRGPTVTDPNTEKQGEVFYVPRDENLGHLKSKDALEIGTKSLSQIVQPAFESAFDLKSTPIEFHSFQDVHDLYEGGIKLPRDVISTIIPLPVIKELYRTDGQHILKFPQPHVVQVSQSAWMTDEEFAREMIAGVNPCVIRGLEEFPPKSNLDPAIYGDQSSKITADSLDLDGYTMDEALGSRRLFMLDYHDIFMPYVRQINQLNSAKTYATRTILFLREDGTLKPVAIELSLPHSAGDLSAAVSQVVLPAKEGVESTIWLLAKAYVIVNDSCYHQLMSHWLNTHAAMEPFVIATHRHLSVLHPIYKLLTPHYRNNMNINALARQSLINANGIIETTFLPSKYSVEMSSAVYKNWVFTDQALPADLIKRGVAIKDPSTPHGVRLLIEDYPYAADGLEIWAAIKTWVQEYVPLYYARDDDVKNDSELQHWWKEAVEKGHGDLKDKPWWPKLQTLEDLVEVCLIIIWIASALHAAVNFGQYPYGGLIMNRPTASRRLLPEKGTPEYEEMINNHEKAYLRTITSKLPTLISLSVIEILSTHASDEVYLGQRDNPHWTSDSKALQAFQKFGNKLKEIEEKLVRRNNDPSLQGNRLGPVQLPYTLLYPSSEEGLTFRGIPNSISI
Description: For this study, the UV absorbance-based soybean LOX assay was used.
The assay for the determination of the inhibition of soybean LOX was performed according to the methods of Hadjipavlou-Litina et al., which we have also used in our previous works.

Row | SMILES | Interaction with the Free Radical DPPH (%) ([1]; 20 min) | Interaction with the Free Radical DPPH (%) ([1]; 60 min) | Inhibition of Lipid Peroxidation of Linoleic Acid Induced by AAPH Radical (%) [2] | OH% (hydroxyl radical scavenging) [3] | ABTS% (ABTS radical cation decolorization) [4] | PMS% (superoxide anion radical scavenging) [5] | Inhibition of Soybean Lipoxygenase % at 0.1 mM [6] | pIC50 [6] | DPPH radical scavenging activity, time not specified [1] | inhibition at 100 µM [6] [%] | melting point [°C]
1 | O=C(NCCO)c1c(O)c2ccccc2n(-c2ccccc2)c1=O [Compound 3d, 4-hydroxy-N-(2-hydroxyethyl)-2-oxo-1-phenyl-1,2-dihydroquinoline-3-carboxamide] | 15.9 | 20.8 | 32.8% | no | no activity and no | 66.6% | inactive and no |  |  |  | 
2 | CCCCCCCNC(=O)c1c(O)c2ccccc2n(C)c1=O [Compound 3e, N-heptyl-4-hydroxy-1-methyl-2-oxo-1,2-dihydroquinoline-3-carboxamide] | 6.6 | 12.2 | inactive and no | 86.1% | 2.6% | 66.6% | no activity and no |  |  |  | 
3 | O=C(Nc1ccc(O)cc1)c1c(O)c2ccccc2n(-c2ccccc2)c1=O [Compound 3g, 4-hydroxy-N-(4-hydroxyphenyl)-2-oxo-1-phenyl-1,2-dihydroquinoline-3-carboxamide] | 40.7 | 51.7 | 100% | 67.7% | 72.4% | no |  | 4.56 |  |  | 
4 | CC1CCCCC1NC(=O)c1c(O)c2ccccc2n(C)c1=O (stereo not drawn) [Compound 3h, 4-hydroxy-1-methyl-N-(2-methylcyclohexyl)-2-oxo-1,2-dihydroquinoline-3-carboxamide] | 6.0 | 8.1 | 31% | 78.6% | no | no |  | 5.00 |  |  | 
5 | CC1CCCCC1NC(=O)c1c(O)c2ccccc2n(-c2ccccc2)c1=O (stereo not drawn) [Compound 3i, 4-hydroxy-N-(2-methylcyclohexyl)-2-oxo-1-phenyl-1,2-dihydroquinoline-3-carboxamide] | 5.2 | 3.7 | 36% | 78.1% | no | no | inactive and no |  |  |  | 
6 | Cn1c(=O)c(C(=O)Nc2ccccc2O)c(O)c2ccccc21 [Compound 3j, 4-hydroxy-N-(2-hydroxyphenyl)-1-methyl-2-oxo-1,2-dihydroquinoline-3-carboxamide] | 32.5 | 46.5 | 32.8% | 100% | 49.7% | no |  | 4.00 |  |  | 
7 | Cc1ccccc1NC(=O)c1c(O)c2ccccc2n(C)c1=O [Compound 3k, 4-hydroxy-1-methyl-2-oxo-N-(o-tolyl)-1,2,dihydroquinoline-3carboxamide] | 1.4 | 11.8 | 41.4% | totally inactive and no | 54.5% | 61.5% |  | 3.50 | inactive |  | 
8 | Cc1ccc(NC(=O)c2c(O)c3ccccc3n(C)c2=O)cc1 [Compound 3l, 4-hydroxy-1-methyl-2-oxo-N-(p-tolyl)-1,2-dihydroquinoline-3-carboxamide] | 2.6 | 2.6 | no | 53.7% | no | no |  | 4.35 | inactive |  | 
9 | Cn1c(=O)c(C(=O)Nc2ccc(F)cc2)c(O)c2ccccc21 [Compound 3m, N-(4-fluorophenyl)-4-hydroxy-1-methyl-2-oxo-1,2-dihydroquinoline-3-carboxamide] | 3.1 | 1.2 | 11.3% | 94.0% | 12.4% | no |  |  | inactive | 15 | 
10 | O=C(NCCc1ccc(O)cc1)c1c(O)c2ccccc2n(-c2ccccc2)c1=O [Compound 3n, 4-hydroxy-N-(4-hydroxyphenethyl)-2-oxo-1-phenyl-1,2-dihydroquinoline-3-carboxamide] | 13.9 | 19.2 | 100% | 14.9% | no | no |  | 4.07 |  |  | 
11 | Cn1c(=O)c(C(=O)NCCc2ccc(O)cc2)c(O)c2ccccc21 [Compound 3o, 4-hydroxy-N-(4-hydroxyphenethyl)-1-methyl-2-oxo-1,2-dihydroquinoline-3-carboxamide] | 20.8 | 8.0 | 100% | 44.3% | 20.6% | no | no |  |  |  | 
12 | Cc1ccc(NC(=O)c2c(O)c3ccccc3n(-c3ccccc3)c2=O)cc1 [Compound 3r, 4-hydroxy-2-oxo-1-phenyl-N-(p-tolyl)-1,2-dihydroquinoline-3-carboxamide] | 12.1 | 1.2 | 17.1% | 50.7% | no | no | 37.4% |  | inactive | 37.5 | 
13 | O=C(Nc1ccc(F)cc1)c1c(O)c2ccccc2n(-c2ccccc2)c1=O [Compound 3s, N-(4-fluorophenyl)-4-hydroxy-2-oxo-1-phenyl-1,2-dihydroquinoline-3-carboxamide] | 21.2 | 8.1 | 28.9% | 100% | no | no |  | 5.00 | inactive |  | 
14 | Cn1c(=O)c(C(=O)Nc2ccncc2)c(O)c2ccccc21 [Compound 3t, 4-hydroxy-1-methyl-2-oxo-N-(pyridin-4-yl)-1,2-dihydroquinoline-3-carboxamide] | 19.7 | 9.5 | 100% | inactive and no | no | no | inactive and no |  |  |  | 
15 | CCn1c(=O)c(C(=O)NCCN)c(O)c2ccccc21 [Compound 7, N-(2-Aminoethyl)-1-ethyl-4-hydroxy-2-oxo-1,2-dihydroquinoline-3-carboxamide] |  |  |  |  |  |  |  |  |  |  | 161
